Test results from EP4763847A1 (Jiangsu Yahong Meditech Co., Ltd., priority 2023, dated 2025).

How the values were obtained:
[1] = molecular target: PRMT5-MTA (Homo sapiens, UniProt O14744); assay: biochemical; conditions: IC50 (nM), PRMT5+MTA enzyme activity inhibition; PRMT5/MET50 protein 1 nM, 5'-deoxy-5'-adenosine 1 µM, SAM 2.5 µM, Histone H4 substrate 5 nM
Protocol: The enzymatic inhibition activity of the compounds against PRMT5-MTA was detected using the AlphaScreen method. A 1× methyltransferase assay buffer IV (Signalchem) was prepared as a dilution solution for each component of the enzymatic reaction. […] The test compounds were added to all wells except the control wells in a 3-fold dilution series of 10 concentration points starting from 1000 nM using a Tecan D300e. After centrifugation at 1000 rpm for 1 minute in a centrifuge, the plate was incubated at 23°C for 15 minutes. Histone H4 substrate at a final concentration of 5 nM was added to the plate at 4 µL per well. After centrifugation at 1000 rpm for 1 minute in a centrifuge, the plate was reacted in an incubator at 23°C for 45 minutes. Anti-Histone H4 (symmetric dimethyl R3) antibody (Abcam) was pre-incubated with 50 µg/mL AlphaScreen Protein A Acceptor beads (PerkinElmer) at room temperature for 10 minutes, and then added to the plate in a volume of 10 µL per well, followed by reaction at room temperature for 1 hour. 10 µL of 50 µg/mL AlphaScreen Streptavidin Donor beads (PerkinElmer) were added to each well, and reacted at room temperature for 1 hour. The signal values in the plate were detected using the Alpha method on an Envision multi-mode plate reader. The IC50 values of the compounds for PRMT5/MET50 enzyme activity inhibition were calculated in Xlfit 5.0 software.

[2] = tested on: HCT116-WT; assay: Cell proliferation inhibition (CellTiter Glo), HCT116-WT cells; format: cell-based; conditions: 144 h, cultured 6 days with compound
Protocol: (§1) Test Example 2: Test of cell proliferation inhibition activity of the compounds
(§2) HCT116-WT (ATCC, CCL-247) and HCT116 MTAP KO (Cobioer Nanjing, CBP75002) cells were seeded into white low-transparency 96-well sterile cell culture plates at a density of 250 cells per well, respectively. The culture medium was McCoy's 5A Medium + 10% FBS. The plates were incubated overnight at 37°C with 5% CO2. The cells were treated with compounds gradiently with an initial concentration of 10000 nM, 4-fold dilution, and 8 concentration points. The last two columns were control wells with only DMSO added. The treated cells were continued to be cultured for 6 days. On the seventh day, 50 µL of CellTiter Glo® reagent was added to each well. After reacting on a shaker at room temperature for 10 minutes, the chemiluminescence signal in the plate was detected using the chemiluminescence detection method on a BIOTEK H1 multi-mode plate reader. […] Table 2: IC50 values of compounds for HCT116 MTAP KO/WT cell growth inhibition

[3] = tested on: HCT116 MTAP KO; assay: Cell proliferation inhibition (CellTiter Glo), HCT116 MTAP KO cells; format: cell-based; conditions: Homo sapiens, HCT-116, 144 h, cultured 6 days with compound
Protocol: as §1, §2

Chain of PRMT5-MTA (O14744 whole entry): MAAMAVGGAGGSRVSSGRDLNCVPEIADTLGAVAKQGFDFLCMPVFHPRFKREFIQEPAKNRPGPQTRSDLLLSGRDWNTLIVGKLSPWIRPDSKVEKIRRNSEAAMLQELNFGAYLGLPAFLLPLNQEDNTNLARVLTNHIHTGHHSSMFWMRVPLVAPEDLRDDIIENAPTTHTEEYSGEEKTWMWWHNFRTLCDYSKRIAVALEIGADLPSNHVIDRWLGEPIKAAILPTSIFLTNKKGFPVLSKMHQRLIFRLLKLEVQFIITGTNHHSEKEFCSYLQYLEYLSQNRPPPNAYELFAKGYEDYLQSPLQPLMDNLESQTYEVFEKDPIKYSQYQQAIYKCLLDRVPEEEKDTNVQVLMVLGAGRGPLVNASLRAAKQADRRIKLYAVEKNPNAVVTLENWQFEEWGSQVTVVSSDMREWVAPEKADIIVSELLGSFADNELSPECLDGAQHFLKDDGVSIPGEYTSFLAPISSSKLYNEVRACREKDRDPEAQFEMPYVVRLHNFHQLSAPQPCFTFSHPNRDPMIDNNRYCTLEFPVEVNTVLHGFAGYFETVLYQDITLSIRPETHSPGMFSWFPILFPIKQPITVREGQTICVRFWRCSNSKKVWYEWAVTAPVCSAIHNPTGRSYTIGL
Chain of PRMT5-MTA (Q9BQA1 whole entry partner): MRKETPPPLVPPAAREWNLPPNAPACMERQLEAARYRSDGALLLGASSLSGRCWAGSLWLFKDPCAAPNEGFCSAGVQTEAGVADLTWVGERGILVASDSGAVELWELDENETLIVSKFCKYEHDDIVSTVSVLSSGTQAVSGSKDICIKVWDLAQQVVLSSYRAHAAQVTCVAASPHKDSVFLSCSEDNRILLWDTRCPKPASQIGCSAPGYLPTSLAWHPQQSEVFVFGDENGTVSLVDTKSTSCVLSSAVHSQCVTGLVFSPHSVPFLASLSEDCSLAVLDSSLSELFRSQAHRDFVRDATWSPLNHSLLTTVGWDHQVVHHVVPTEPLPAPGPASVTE

Compound: CNC(N)=Nc1ccc(C(=O)N(Cc2ccc(C(F)(F)F)cn2)c2cccc3cccnc23)cn1 [Compound 45, 6-((amino(methylamino)methylene)amino)-N-(quinolin-8-yl)-N-((5-(trifluoromethyl)pyridin-2-yl)methyl)nicotinamide]
- IC50 [1]: 1 nM
- IC50 [2]: 275 nM
- IC50 [3]: 24 nM

Compound: CNC(N)=Nc1ccc(C(=O)N(Cc2ccc(-c3cnc(C)nc3)cn2)[C@H](C)c2ccccc2F)cn1 [Compound 70]
- IC50 [1]: 3.9 nM
- IC50 [2]: 2580 nM
- IC50 [3]: 150 nM

Compound: CNC(N)=Nc1ccc(C(=O)N(Cc2ccc(C(F)(F)F)cn2)[C@H](C)c2cc(F)ccc2F)cn1 [Compound 85]
- IC50 [1]: 4 nM
- IC50 [2]: 290 nM
- IC50 [3]: 11 nM

Compound: CN/C(N)=N\c1ccc(C(=O)N(Cc2ccc(C(F)(F)F)cn2)C(C)c2ncccc2F)cn1 (single isomer, unassigned) [Compound 65]
- IC50 [1]: 5.4 nM
- IC50 [2]: 569 nM
- IC50 [3]: 30 nM

Compound: CNC(N)=Nc1ccc(C(=O)N(Cc2ccccc2)[C@H](C)c2ccccc2F)cn1 [Compound 99]
- IC50 [1]: 4.6 nM
- IC50 [2]: 3330 nM
- IC50 [3]: 445 nM

Compound: CNC(N)=Nc1ccc(C(=O)N(Cc2ccccc2)Cc2ccc(C(F)(F)F)cn2)cn1 [Compound 36]
- IC50 [1]: 3.6 nM
- IC50 [2]: 5360 nM
- IC50 [3]: 521 nM

Compound: CNC(N)=Nc1ccc(C(=O)N(Cc2ccc(-c3cccnc3)cn2)[C@H](C)c2ccccc2F)cn1 [Compound 68]
- IC50 [1]: 7.7 nM
- IC50 [2]: 1990 nM
- IC50 [3]: 169 nM

Compound: CNC(N)=Nc1ccc(C(=O)N(Cc2cccc(Cl)c2)[C@H](C)c2ccccc2F)cn1 [Compound 106]
- IC50 [1]: 5.9 nM
- IC50 [2]: 2890 nM
- IC50 [3]: 601 nM

Compound: CNC(N)=Nc1ccc(C(=O)N(Cc2ccc(C(F)(F)F)cn2)C(C)c2ccc(F)cc2)cn1 (stereo not shown) [Compound 37]
- IC50 [2]: 2700 nM
- IC50 [3]: 454 nM

Compound: COC(=O)CNC(N)=Nc1ccc(C(=O)N(Cc2ccc(C(F)(F)F)cn2)C(C)c2ncccn2)cn1 (stereo not shown) [Compound 8]
- IC50 [1]: 5.5 nM

Compound: CNC(N)=Nc1ccc(C(=O)N(C)C2COc3cc(-c4ccncc4)ccc32)cn1 (stereo not shown) [Compound 55, 6-((amino(methylamino)methylene)amino)-N-methyl-N-(6-(pyridin-4-yl)-2,3-dihydrobenzofuran-3-yl)nicotinamide]
- IC50 [1]: 5 nM

Compound: CNC(N)=Nc1ccc(C(=O)N(Cc2ccc3ccsc3c2)[C@H](C)c2ccccc2F)cn1 [Compound 105]
- IC50 [1]: 5.7 nM
- IC50 [2]: 2230 nM
- IC50 [3]: 263 nM

Compound: CNC(N)=Nc1ccc(C(=O)N(Cc2ccc3c(cnn3C)c2)[C@H](C)c2ccccc2F)cn1 [Compound 102]
- IC50 [1]: 2.6 nM
- IC50 [2]: 667 nM
- IC50 [3]: 50 nM

Compound: CN/C(N)=N\c1ccc(C(=O)N(Cc2ccc(C(F)(F)F)cn2)C2CCCc3nccnc32)cn1 (stereo not shown) [Compound 122, (Z)-6-((amino(methylamino)methylene)amino)-N-(5,6,7,8-tetrahydroquinoxalin-5-yl)-N -((5-(trifluoromethyl)pyridin-2-yl)methyl)nicotinamide]
- IC50 [2]: 1930 nM
- IC50 [3]: 192 nM

Compound: CNC(N)=Nc1ccc(C(=O)N(Cc2ccc(C(F)(F)F)cn2)C2CCC2)cn1 [Compound 35]
- IC50 [1]: 2 nM

Compound: CNC(N)=Nc1ccc(C(=O)N(Cc2ccc(C(F)(F)F)cn2)n2ccc3ccccc32)cn1 [Compound 62]
- IC50 [1]: 4.1 nM
- IC50 [2]: 1790 nM
- IC50 [3]: 76 nM

Compound: CN/C(N)=N\c1ccc(C(=O)N(Cc2ccc(C(F)(F)F)cn2)C(C)c2ccc(F)cc2)cn1 (stereo not shown) [Compound 118, (Z)-6-((amino(methylamino)methylene)amino)-N-(1-(4-fluorophenyl)ethyl)-N-((5-(trifluoromethyl)pyridin-2-yl)methyl)nicotinamide]
- IC50 [1]: 1.5 nM
- IC50 [2]: 2700 nM
- IC50 [3]: 454 nM

Compound: CN/C(N)=N\c1ccc(C(=O)N(Cc2ccc(C(F)(F)F)cn2)[C@@H]2CCCc3ccccc32)cn1 [Compound 96, (R,Z)-6-((amino(methylamino)methylene)amino)-N-(1,2,3,4-tetrahydronaphthalen-1-yl) -N-((5-(trifluoromethyl)pyridin-2-yl)methyl)nicotinamide]
- IC50 [1]: 3.5 nM
- IC50 [2]: 366 nM
- IC50 [3]: 22 nM

Compound: CNC(N)=Nc1ccc(C(=O)N(Cc2ccc(C(F)(F)F)cn2)C2CCOc3cccnc32)cn1 (stereo not shown) [Compound 90]
- IC50 [1]: 1.5 nM
- IC50 [2]: 1520 nM
- IC50 [3]: 81 nM

Compound: CN/C(N)=N\c1ccc(C(=O)N(Cc2ccc(C(C)(C)F)cn2)[C@H](C)c2ccccc2F)cn1 [Compound 75, (R,Z)-6-((amino(methylamino)methylene)amino)-N-(1-(2-fluorophenyl)ethyl)-N-((5-(2-fluoropropan-2-yl)pyridin-2-yl)methyl)nicotinamide]
- IC50 [1]: 2.6 nM
- IC50 [2]: 844 nM
- IC50 [3]: 36 nM

Compound: CNC(N)=Nc1ccc(C(=O)N(C)C2COc3cc(C(F)(F)F)ccc32)cn1 (stereo not shown) [Compound 54, 6-((amino(methylamino)methylene)amino)-N-methyl-N-(6-(trifluoromethyl)-2,3-dihydrobenzofuran-3-yl)nicotinamide]
- IC50 [1]: 2 nM

Compound: CNC(N)=Nc1ccc(C(=O)N(Cc2ccc(C(F)(F)F)cn2)N2CCc3ccccc32)cn1 [Compound 64]
- IC50 [1]: 3.2 nM
- IC50 [2]: 1960 nM
- IC50 [3]: 63 nM

Compound: CNC(N)=Nc1ccc(C(=O)N(Cc2ccc(C(F)(F)F)cn2)N(C)c2ncccn2)cn1 [Compound 113]
- IC50 [1]: 3.2 nM
- IC50 [2]: 2650 nM
- IC50 [3]: 49 nM

Compound: CNC(N)=Nc1ccc(C(=O)N(CC2CCCCO2)C(C)c2ccccc2F)cn1 (stereo not shown) [Compound 103]
- IC50 [1]: 4.2 nM

Compound: CNC(N)=Nc1ccc(C(=O)N(Cc2ccc(C(F)(F)F)cc2F)C(C)c2cccc3nccnc23)cn1 (stereo not shown) [compound 121]
- IC50 [1]: 4.4 nM

Compound: CN/C(N)=N\c1ccc(C(=O)N(Cc2ccc(C(F)(F)F)cn2)C(C)c2cccc3nccnc23)cn1 (stereo not shown) [Compound 120, (Z)-6-((amino(methylamino)methylene)amino)-N-(1-(quinoxalin-5-yl)ethyl)-N-((5-(trifluoromethyl)pyridin-2-yl)methyl)nicotinamide]
- IC50 [1]: 1 nM

Compound: CN/C(N)=N\c1ccc(C(=O)N(Cc2ccc(C(F)(F)F)cn2)C(C)c2ncccc2F)cn1 (single isomer, unassigned) [Compound 66]
- IC50 [1]: 7.5 nM

Compound: CC(c1ncccn1)N(Cc1ccc(C(F)(F)F)cn1)C(=O)c1ccc(N=C(N)Nc2ccccc2)nc1 (stereo not shown) [Compound 9]
- IC50 [1]: 7.9 nM

Compound: COC=C(N)Nc1ccc(C(=O)N(Cc2ccc(C(F)(F)F)cn2)C(C)c2ncccn2)cn1 (stereo not shown) [Compound 23]
- IC50 [1]: 5.8 nM

Compound: CNC(N)=Nc1ccc(C(=O)N(Cc2ccc(C(F)(F)F)cn2)C(C)c2ncccn2)cc1 (stereo not shown) [Compound 4]
- IC50 [1]: 1.6 nM

Compound: CC(c1ncccn1)N(Cc1ccc(C(F)(F)F)cn1)C(=O)c1ccc(N=C(N)NCCO)nc1 (stereo not shown) [Compound 19]
- IC50 [1]: 0.8 nM

Compound: CNC(N)=Nc1ccc(C(=O)N(Cc2ccc(C(F)(F)F)cn2)C(C)c2cccc3ccccc23)cn1 (stereo not shown) [Compound 43]
- IC50 [1]: 1.6 nM

Compound: CC(c1ncccn1)N(Cc1ccc(C(F)(F)F)cn1)C(=O)c1ccc(N=C(N)NCCN(C)C)nc1 (stereo not shown) [Compound 10]
- IC50 [1]: 1.3 nM

Compound: CC(C)NC(N)=Nc1ccc(C(=O)N(Cc2ccc(C(F)(F)F)cn2)C(C)c2ncccn2)cn1 (stereo not shown) [Compound 15]
- IC50 [1]: 2.3 nM

Compound: CNC(N)=Nc1ccc(C(=O)N2C[C@@H](C)CC[C@@H]2c2ccc(F)cc2)cn1 [Compound 57, 2-(5-((2R,5S)-2-(4-fluorophenyl)-5-methylpiperidine-1-carbonyl)pyridin-2-yl)-1-methyl guanidine]
- IC50 [1]: 1.8 nM

Compound: CNC(N)=Nc1ccc(C(=O)N(Cc2ccc(C(F)(F)F)cn2)C(C)c2ccc(C)cc2)cn1 (stereo not shown) [Compound 40]
- IC50 [1]: 1.9 nM

Compound: CC(c1ncccn1)N(Cc1ccc(C(F)(F)F)cn1)C(=O)c1ccc(N=C(N)NCC(=O)O)nc1 (stereo not shown) [Compound 18]
- IC50 [2]: 2030 nM
- IC50 [3]: 868 nM

Compound: CNC(N)=Nc1ccc(C(=O)N(Cc2ccc3sc(NC)nc3c2)[C@H](C)c2ccccc2F)cn1 [Compound 80]
- IC50 [1]: 7.8 nM

Compound: CNC(N)=Nc1ccc(C(=O)N(Cc2ccc(-c3cncs3)cn2)[C@H](C)c2ccccc2F)cn1 [Compound 72]
- IC50 [2]: 696 nM
- IC50 [3]: 54 nM

Compound: CNC(N)=Nc1ccc(C(=O)N(Cc2ccc(C(F)(F)F)cn2)C2CCCc3cccnc32)cn1 (stereo not shown) [Compound 59]
- IC50 [2]: 413 nM
- IC50 [3]: 18 nM

Compound: COCCNC(N)=Nc1ccc(C(=O)N(Cc2ccc(C(F)(F)F)cn2)C(C)c2ncccn2)cn1 (stereo not shown) [Compound 3]
- IC50 [1]: 2.9 nM

Compound: CNC(N)=Nc1ccc(C(=O)N(Cc2ccc(C(F)(F)F)cn2)C(C)c2ccncc2)cn1 (stereo not shown) [Compound 39]
- IC50 [1]: 1.2 nM

Compound: CNC(N)=Nc1ccc(C(=O)N(Cc2cccnc2)[C@H](C)c2ccccc2F)cn1 [Compound 100]
- IC50 [1]: 7.6 nM

Compound: CNC(=Nc1ccc(C(=O)N(Cc2ccc(C(F)(F)F)cn2)C(C)c2ncccn2)cn1)NC (stereo not shown) [Compound 21, 6-((bis(methyl-amino)methylene)amino)-N-(1-(pyrimidin-2-yl)ethyl)-N-((5-(trifluoromethyl)pyridin-2-yl)methyl)nicotinamide]
- IC50 [1]: 4.7 nM

Compound: CCC(c1ccccc1F)N(Cc1ccc(C(F)(F)F)cn1)C(=O)c1ccc(N=C(N)NC)nc1 (stereo not shown) [Compound 84]
- IC50 [2]: 428 nM
- IC50 [3]: 25 nM
